Laboratory results from US20240085403A1, “METHOD FOR INHIBITING ADVENTITIOUS VIRAL INFECTION” (Allogene Therapeutics, Inc., priority 2022, published 2024).

What was measured:
[1] = test system: PBMCs with integrate HHV-6 genomes (iciHHV6); type: cell-based, human
Description: (§1) We next examined the effects of other known antiviral agents on controlling HHV-6 reactivation using PBMCs with integrate HHV-6 genomes (iciHHV6) to mimic continuous low levels of HHV-6 infection. Ganciclovir, cidofovir and foscarnet are all small molecule inhibitors of HHV viral DNA polymerase. Artesunate is a small molecule antiviral agent targeting HHV immediate early genes. […] See e.g., hhv-6foundation.org/research/hhv-6-antiviral-drug-resistance; Reyman et al., 1995, Antiviral Res. 28:343-57; and Vittayawacharin et al., 2023, Transplant Cell Ther. 29:397. The cells were cultured in X-vivo supplemented media for three days before being split into 4 subcultures. Afterwards, cells were cultured for 15 additional days, with media exchange twice a week, each time containing a fresh dose of the same antiviral agent at the same initial concentration. Cell sampling was taken on different days after the antiviral agent was first added. The effect of the antiviral agent on the viability of cells were analyzed by using a cellular apoptosis screening kit (Thermo Cat #V13242),.

HHV-6 [2] = assay: HHV-6 U65 gene copies by qPCR in iciHHV6 PBMCs treated with antiviral agents; type: cell-based, Human herpesvirus 6; details: 15 days culture, concentrations of Table 2
Description: as §1
Next, HHV-6 replication was analyzed by detecting copies of HHV-6 gene U65 by qPCR.
(§2) Genomic DNA was extracted from cells and DNA levels of HHV-6 were determined by quantitative PCR (qPCR). The experiment was carried out using the ThermoFisher Scientific, TaqMan™ Fast Virus 1-Step Master Mix, (Catalog number: 4444434).

HHV-6 [3] = details: in vitro anti-HHV-6 activity, literature; read-out: EC50 (Reyman 1995); cited from earlier work
HHV-6 [4] = assay: HHV-6 U31 viral DNA by qPCR in thawed CAR T drug product cultured with IFNα; type: cell-based, Human herpesvirus 6; details: both lots of DP (Batch 1 HHV-6 high, Batch 2 low); IFNα 0.01, 1, 100 ng/mL; D1-D7
Description: Drug product (DP) for experiment was selected based on the results of screening for HHV-6, among other adventitous agents, at the end of cell engineering process. Batch #1 was one of a few rare occurrences of DP with “positive” levels of HHV-6 and was chosen for the following studies (designated as the “HHV-6 high” group), while Batch #2 was chosen as the “low”-level counterpart. DP vials were retrieved from LN2, thawed and each split into 4 day 0 (D0) flasks. We first tested the effects of a type I IFN, such as IFNα, on the replication and infectivity of HHV-6. Flasks received either complete media (X-vivo +5% human serum (HS)+supplements) or complete media with added IFNα (human IFN-α2a at 100 ng/mL, 1 ng/mL and 0.01 ng/mL, Miltenyi). Cells were cultured for 7 additional days (D1-D7), with daily collections of cells from all conditions for freezing. Media was replaced every three days, with or without added IFNα for corresponding flasks.
Post-cell culture, DNA was extracted from the collected samples, and analyzed by qPCR for HHV-6 marker U31 as described in Material & Methods.
as §2

HHV-6 p41 = assay: Immunofluorescence of HHV-6 p41 protein in CAR T drug product culture; type: cell-based, Human herpesvirus 6
Description: To test whether HHV-6 protein expression is affected by IFNα treatment, we performed immunofluorescence using an antibody specific for HHV-6 p41, an HHV-6 early gene product, on cells collected from D4 of the Batch 1 (“HHV-6 high”) DP culture.
The cells were fixed with 4% paraformaldehyde and permeabilized using 0.5% saponin before incubating with HHV6 p41 antibody conjugated with Alexa-488 at 0.2 μg/mL. Cells were stained with DAPI prior to imaging at 20× magnification.

HHV-6B in CEM-HHV6 cells = assay: CEM-HHV6 latency/reactivation model, HHV-6 qPCR after sodium butyrate and PMA reactivation; type: cell-based, human herpesvirus 6B (strain Z-29)
Description: We next tested whether viral reactivation can be induced in the latency cell culture model. CEM-HHV6 cells (1×10^7) were reactivated using 100 ng/mL of PMA (phorbol-12-myristate-13-acetate, Cat #500582 Millipore-Sigma) and 1 mM NaButyrate (Cat #19-137, Millipore-Sigma) final concentration for 2 days at 37° C. On day 2 cells were washed and resuspended in RPMI+5% FBS and cultured for 18 days. Media was replenished as needed. CEM-HHV6 cells were collected on days 5, 8, 12, 14, 16, and 19 post-reactivation. HHV-6B viral reactivation was assessed by qPCR analysis of the vgDNA of HHV-6B targeting the U31 and U65-66 genes. Untreated CEM-HHV6 cells were used as a negative control.
The CEM-HHV6 reactivation model described in FIGS. 2A-F was utilized for testing the effects of IFNα in the cell culture model, similar to the testing carried out in DP (FIG. 1A). CEM-HHV6 cells were initially cultured in bulk before the start of the experiment. One day before the start of the experiment (D-1), an aliquot of the CEM-HHV6 cells was taken out and split before treatment with one of three IFNα concentrations (100 ng/mL, 1 ng/mL and 0.01 ng/mL), which constituted the “pre-treatment” of IFNα. Cells were collected from the beginning of the experiment (D0) and continuing every few days throughout. […]

HHV-6B (strain Z-29) [5] = assay: Small-scale CAR T process with HHV-6B infection, viral RNA (U79, U90, U100) by RT-qPCR; type: cell-based, human herpesvirus 6B (strain Z-29)
Description: (§3) HHV-6 reactivation from PBMC is an extremely rare event in CAR T manufacturing based on existing data. To investigate the feasibility of using IFNα in controlling HHV-6 infectivity, we designed experiments to test the effects of IFNα in the manufacturing process by deliberately introducing active HHV-6 infection. In brief, the PBMCs from two different donors were thawed from frozen storage and cultured in complete media (5% HS+X-vivo+Supplements) for activation and LVV transduction. After electroporation of cells with TALEN mRNA, the T cells were infected with HHV-6B (strain Z-29) at MOI=0.4 for 3 hrs, then transferred to the G-Rex bioreactor for expansion for 10 days (Day 8 to Day 18). IFNα was added into the complete media at different concentrations (100 ng/mL, 10 ng/mL, 1 ng/mL and 0.1 ng/mL) on D8 after the 3 hrs of HHV-6 infection and kept in culture until the end of the expansion period. Cell samples were collected on D11, D13, D15 and D18, i.e., three, five, seven, and ten days post infection, to determine the HHV-6 virus infectivity by RT-qPCR assay (FIG. 4B), flow cytometry detection (FIG. 4C), and qPCR assay (FIG. 4D). […]
Total RNA was extracted from cells and analyzed using reverse transcription qPCR (RT-qPCR) assay for U79, U90, U100 and GAPDH genes to determine HHV-6 infectivity.

HHV-6 viral antigen p41 = assay: Small-scale CAR T process with HHV-6B infection, p41 viral antigen by flow cytometry; type: cell-based, human herpesvirus 6B (strain Z-29); details: IFNα 0.1 ng/mL, D18, both donors
Description: as §3
HHV6 infectivity was determined by intracellular staining using antibody against HHV-6 p41 protein at 1 μg/mL and FACS analysis was performed to determine the percent of cells expressing the viral protein.

HHV-6B (strain Z-29) [6] = assay: Small-scale CAR T process with HHV-6B infection, U31 DNA by qPCR; type: cell-based, human herpesvirus 6B (strain Z-29); details: IFNα 0.1 ng/mL, process D18
Description: as §3, with “4D). Description of RT-qPCR assay, flow cytometry, and genomic DNA qPCR assay are shown in Materials & Methods.” for “4D).”
Genomic DNA was extracted from cells and DNA levels of HHV-6 were determined by quantitative PCR (qPCR). […]

HHV-6 [7] = assay: Timing of IFNα addition before HHV-6 infection, U100 and U79 transcripts by RT-qPCR; type: cell-based, Human herpesvirus 6
Description: To mimic the rare reactivation event, PBMC-derived CAR T cells were infected with exogenous HHV-6 at an MOI of 0.4 on Day 8 of the small scale manufacturing process. Cells were treated with IFNα at a concentration of 1 ng/μL or 10 ng/μL on Day 0 (preactivation), Day 1 (activation), Day 4, or Day 6, or untreated throughout the process. All cultures were infected with HHV-6 on Day 8, regardless whether the cells were pre-treated with IFNα or left untreated.
The effects of IFNα on HHV-6 infection were analyzed in cells from two different donors. The transcripts of viral genes U100 (FIGS. 6A and 7A) and U79 (FIGS. 6B and 7B) were analyzed by RT-qPCR at the time points of three, seven and ten days post infection (i.e., on Day 11, Day 15 and Day 18 of the small scale manufacturing process). The y-axis reprepresents relative-fold change for each value compared to the endogenous GAPDH as well as untreated donor RNA (Day 0 before IFNα treatment).

HHV-6 [8] = assay: Timing of IFNα addition before HHV-6 infection, viral DNA by qPCR; type: cell-based, Human herpesvirus 6; details: data not shown
CAR T cells [9] = test system: CAR T cells
CAR T cells [10] = assay: CAR T cell expansion, % CAR+ and phenotype under IFNα in the HHV-6 infection model; details: IFNα 0.1 ng/mL to 10 ng/mL, added Day 8 to Day 18

In the case of `C[C@H]1[C@H](OC(=O)CCC(=O)O)O[C@@H]2O[C@@]3(C)CC[C@H]4[C@H](C)CC[C@@H]1[C@@]24OO3` [Artesunate], the “cell health / apoptosis” value [1] is given as “induced higher level of apoptosis”, the “HHV-6 levels (U65 gene copies by qPCR)” value (HHV-6 [2]) is given as “increased HHV-6 levels over the culture period” and the EC50 (HHV-6 [3]) is given as 3.8 µM.

For `Nc1ccn(C[C@@H](CO)OCP(=O)(O)O)c(=O)n1` [Cidofovir, cidofovir], the “cell health / apoptosis” value [1] is given as “induced higher level of apoptosis”, the “HHV-6 levels (U65 gene copies by qPCR)” value (HHV-6 [2]) is given as “increased HHV-6 levels over the culture period” and the EC50 (HHV-6 [3]) is given as 12 to 15 µM.

In the case of `O=C(O)P(=O)(O)O` [Foscarnet, foscarnet], the “cell health / apoptosis” value [1] is given as “did not negatively affect cell health”, the “HHV-6 levels (U65 gene copies by qPCR)” value (HHV-6 [2]) is given as “maintain the HHV-6 levels at around their starting level” and the EC50 (HHV-6 [3]) is given as 8.4 µM.

For `Nc1nc2c(ncn2COC(CO)CO)c(=O)[nH]1` [Ganciclovir, ganciclovir], the “cell health / apoptosis” value [1] is listed as “did not negatively affect cell health”, the “HHV-6 levels (U65 gene copies by qPCR)” value (HHV-6 [2]) is listed as “decreased viral load initially followed by an increase at later time points” and the EC50 (HHV-6 [3]) is listed as over 25 µM.

With “IFNα: human IFN-α2a (Miltenyi), a type I IFN; exemplary sequence SEQ ID NO: 19/20” the “HHV-6 viral DNA (U31) fold-change relative to D0” value (HHV-6 [4]) was “reduction in the viral load compared to the control”, the “cells positive for HHV-6 p41 (immunofluorescence)” value (HHV-6 p41; Batch 1 (HHV-6 high) DP culture, D4, increasing concentration of IFNα) was “fewer cells positive for HHV-6 p41” and the “cells positive for HHV-6 p41 (immunofluorescence)” value (HHV-6 p41; batch 2 (HHV-6 low) culture, D4, regardless of concentration used, data not shown) was “no detectable HHV-6 p41 positive cells”. For the same molecule, the “viral DNA, reactivated (RA) versus non-reactivated (NRA) samples” value (HHV-6B in CEM-HHV6 cells; IFNα 100 ng/mL) was “virtually no distinction between the NRA and the RA samples”, the “level of viral growth (HHV-6 DNA qPCR)” value (HHV-6B in CEM-HHV6 cells; as the IFNα dosage increased (0.01, 1, 100 ng/mL), pre- or post-treatment) was “the level of viral growth was reduced” and the “HHV-6 viral RNA” value (HHV-6B (strain Z-29) [5]; IFNα 10 ng/mL, D18) was “below detectable levels”. For the same molecule, the “HHV-6 RNA levels (U79, U90, U100)” value (HHV-6B (strain Z-29) [5]; donor #1, lowest concentration of IFNα, D11 to D18) was “decreased from D11 to D18”, the “HHV-6 viral antigen p41 expression” value (HHV-6 viral antigen p41) was “effectively reduced” and the “decrease of HHV-6 DNA levels (U31)” value (HHV-6B (strain Z-29) [6]) was 16 to 38 fold. For the same molecule, the U79 transcript (HHV-6 [7]; IFNα added on Day 4 or Day 6 (samples C5-C8)) was “decreased transcript”, the U100 transcript level (HHV-6 [7]; IFNα added on Day 6 (conditions C7, C8; 10 and 1 ng/μL), infection Day 8, compared to C9) was “greatest reduction of U100 transcript level” and the “viral load as determined by qPCR” value (HHV-6 [8]; IFNα added on Day 6 (C7, C8)) was “lowest level of viral load”. For the same molecule, the “suppression of HHV-6 infection (U31 DNA qPCR)” value (HHV-6 [8]; doses of IFNα added closer to infection) was “strongest suppression effect”, the “proliferation of CAR-T cells” value (CAR T cells [9]) was “could suppress the proliferation” and the “fold of CAR T cell expansion” value (CAR T cells [10]) was “did not significantly affect”.
